Structures can show the parent of a compound that is named as a salt.

Experimental findings from patent US20090069320A1, “Substituted 4-Amino-Quinazoline Compounds with Metabotropic Glutamate Receptor Regulating Activity and Uses Thereof” (Gruenenthal GmbH, priority 2006, published 2009) are described below.

One test deals with T1, mGluR5 receptor (Sus scrofa, UniProt I3LUI7).
T1 construct: 450 μg of protein from brain homogenate with 5 nM ^3[H]-MPEP; from tissue; host or cells: pig brain halves without medulla, cerebellum and pons
T1 sequence (I3LUI7 19-1212): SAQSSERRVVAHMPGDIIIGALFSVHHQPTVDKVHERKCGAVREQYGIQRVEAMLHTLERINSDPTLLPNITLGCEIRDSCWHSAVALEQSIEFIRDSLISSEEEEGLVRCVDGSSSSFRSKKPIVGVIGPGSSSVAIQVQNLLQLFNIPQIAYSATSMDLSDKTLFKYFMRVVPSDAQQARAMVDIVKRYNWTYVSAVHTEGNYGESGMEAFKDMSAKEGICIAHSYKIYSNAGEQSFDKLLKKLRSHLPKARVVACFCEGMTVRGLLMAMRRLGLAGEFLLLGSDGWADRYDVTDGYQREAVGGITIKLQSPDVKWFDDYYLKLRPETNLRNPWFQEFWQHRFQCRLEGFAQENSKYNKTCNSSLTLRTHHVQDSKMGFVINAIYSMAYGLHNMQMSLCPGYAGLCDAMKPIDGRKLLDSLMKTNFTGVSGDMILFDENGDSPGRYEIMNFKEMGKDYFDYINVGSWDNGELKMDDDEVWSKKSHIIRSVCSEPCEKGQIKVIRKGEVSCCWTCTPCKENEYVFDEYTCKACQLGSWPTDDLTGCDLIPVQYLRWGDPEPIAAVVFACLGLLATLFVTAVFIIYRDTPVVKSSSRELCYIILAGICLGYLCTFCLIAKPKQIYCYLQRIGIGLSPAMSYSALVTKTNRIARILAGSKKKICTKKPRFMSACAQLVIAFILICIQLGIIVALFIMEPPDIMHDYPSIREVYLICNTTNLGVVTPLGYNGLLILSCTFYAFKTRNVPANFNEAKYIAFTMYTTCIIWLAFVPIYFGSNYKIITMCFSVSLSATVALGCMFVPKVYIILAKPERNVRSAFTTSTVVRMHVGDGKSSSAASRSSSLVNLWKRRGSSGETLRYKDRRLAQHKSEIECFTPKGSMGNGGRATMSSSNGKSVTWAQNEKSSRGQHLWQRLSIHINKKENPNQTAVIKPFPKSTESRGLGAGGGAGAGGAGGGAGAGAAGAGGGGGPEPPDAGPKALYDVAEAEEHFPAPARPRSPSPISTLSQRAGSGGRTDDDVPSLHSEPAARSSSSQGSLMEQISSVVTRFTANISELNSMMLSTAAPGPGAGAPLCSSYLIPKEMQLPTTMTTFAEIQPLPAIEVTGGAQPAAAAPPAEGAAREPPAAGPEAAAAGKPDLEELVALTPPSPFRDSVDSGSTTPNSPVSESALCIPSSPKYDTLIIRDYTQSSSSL
The test can be described thus: [3H]-MPEP mGluR5 receptor binding assay (pig brain homogenate). To be noted: 5 nM [3H]-MPEP, read-out: IC50 mGluR5 Receptor (pig) [^3H]-MPEP Bond. In short, it runs like this: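 Radioligand displacement of 5 nM [3H]-MPEP from pig brain homogenate (450 μg protein; medulla, cerebellum and pons removed) in 20 mM Hepes pH 8.0. Compounds were tested at 10 μM, incubated 60 min at room temperature, then filtered and counted by scintillation. Non-specific binding was defined with 10 μM MPEP.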
Consider `COc1ccc(-c2ccc3ncnc(NC4CC4)c3c2)cc1CN(C(C)=O)C1CC1` [Example 259, N-cyclopropyl-N-[5-(4-cyclopropylamino-quinazolin-6-yl)-2-methoxy-benzyl]-acetamide], for which the IC50 was determined as 0.29 µM.

As for `CC(=O)N(Cc1cccc(-c2ccc3ncnc(NC4CC4)c3c2)c1)c1ccccc1` [Example 207, N-(3-(4-(cyclopropylamino)quinazolin-6-yl)benzyl)-N-phenylacetamide hydrochloride], the IC50 came to 7.17 µM. For the compound `c1cc(CNC2CC2)cc(-c2ccc3ncnc(NC4CC4)c3c2)c1` [Example 294, N-cyclopropyl-6-(3-((cyclopropylamino)methyl)-phenyl)quinazoline-4-amine], the IC50 was found to be 8.67 µM. Regarding `Fc1ccc(-c2ccc3ncnc(NC4CC4)c3c2)c(F)c1CNC1CC1` [Example 304, N-cyclopropyl-6-(3-((cyclopropylamino)methyl)-2,4-difluorophenyl)quinazoline-4-amine], the IC50 was found to be 3.11 µM. Same read-out and setting: in the case of `O=C1CCC(=O)N1Cc1cccc(-c2ccc3ncnc(NC4CCCC4)c3c2)c1` [Example 287, 1-(3-(4-(cyclopentylamino)quinazolin-6-yl)benzyl)pyrrolidine-2,5-dione hydrochloride] it was 0.06 µM.

The test is the same for the next values; noted with them: 10 μM compound, 5 nM [3H]-MPEP.
For the compound `O=S(=O)(c1c(F)c(F)c(F)c(F)c1F)N(Cc1cc(-c2ccc3ncnc(NC4CC4)c3c2)ccc1Cl)C1CC1` [Example 802, N-(2-chloro-5-(4-(cyclopropylamino)quinazolin-6-yl)benzyl)-N-cyclopropyl-2,3,4,5,6-pentafluorobenzole sulfonamide], the “% Inhibition of mGluR5 Receptor (pig) [^3H]-MPEP Bond at 10 μM” value worked out at 97%.

Regarding `CC(C)S(=O)(=O)N(Cc1cc(-c2ccc3ncnc(NC4CC4)c3c2)ccc1Cl)C1CC1` [Example 854, N-(2-chloro-5-(4-(cyclopropylamino)quinazolin-6-yl)benzyl)-N-cyclopropyl propane-2-sulfonamide], the “% Inhibition of mGluR5 Receptor (pig) [^3H]-MPEP Bond at 10 μM” value is 75%.

The same test, now with this note: 10 μM compound, 5 nM [3H]-MPEP, read-out: % Inhibition of mGluR5 Receptor (pig) [^3H]-MPEP Bond at 10 μM.
For the compound `Cc1cccc(CNc2ncnc3ccc(-c4cccc(CN(C(=O)CN(C)C)C5CC5)c4)cc23)c1` [Example 726, N-cyclopropyl-2-(dimethylamino)-N-(3-(4-(3-methylbenzylamino)quinazolin-6-yl)benzyl)acetamide], the inhibition at 10 µM stood at 65%. On the same count and under the same terms, in the case of `O=C(c1ccc(C(F)(F)F)cc1F)N(Cc1cc(-c2ccc3ncnc(NC4CC4)c3c2)ccc1Cl)C1CC1` [Example 800, N-(2-chloro-5-(4-(cyclopropylamino)quinazolin-6-yl)benzyl)-N-cyclopropyl-2-fluoro-4-(trifluoromethyl)benzamide] it was 91%; in that of `Cc1cc2ncnc(NC3CC3)c2cc1-c1cccc(CN(C(=O)c2ccco2)C2CC2)c1` [Example 691, N-cyclopropyl-N-(3-(4-(cyclopropylamino)-7-methylquinazolin-6-yl)benzyl)furan-2-carboxamide], 83%. On the same count and under the same terms, under `CC(=O)N(Cc1ccc(F)c(-c2ccc3ncnc(NC4CC4)c3c2)c1)C1CC1` [Example 896, N-cyclopropyl-N-(3-(4-(cyclopropylamino)quinazolin-6-yl)-4-fluorobenzyl)acetamide] stands 78%. The same measure, in the same setting: in the case of `COc1ccc(C(=O)N(Cc2cccc(-c3cc(F)c4ncnc(NC5CC5)c4c3)c2)C2CC2)cc1OC` [Example 700, N-cyclopropyl-N-(3-(4-(cyclopropylamino)-8-fluoroquinazolin-6-yl)benzyl)-3,4-dimethoxybenzamide] it was 81%; in that of `CC(=O)OCN(Cc1cccc(-c2ccc3ncnc(NC4CC4)c3c2)c1)C(C)=O` [Example 203, {acetyl-[3-(4-cyclopropylamino-quinazolin-6-yl)-benzyl]-amino}-methyl acetate], 39%. As to `Cc1nc(NC2CC2)c2cc(-c3ccc(F)c(CN(C(=O)c4c(F)c(F)c(F)c(F)c4F)C4CC4)c3)ccc2n1` [Example 574, N-cyclopropyl-N-(5-(4-(cyclopropylamino)-2-methylquinazolin-6-yl)-2-fluorobenzyl)-2,3,4,5,6-pentafluorobenzamide], the inhibition at 10 µM came to 106%.

Usually IC50 stands for the concentration at which inhibition is half-maximal. For orientation: inhibition means the relative decrease from the control value, in per cent.
